Like-named read-outs stand apart in the source and are kept apart here.
Key:
M1 MdMs [1] = test system: M1 MdMs; parameters: method as in PMID 36982945; details: summary table ref 11; cited from earlier work
M2 MdMs = test system: M2 MdMs; parameters: method as in PMID 36982945; details: summary table ref 11; cited from earlier work
Human primary T cells = test system: Human primary T cells; parameters: method as in PMID 36982945; details: summary table ref 11; cited from earlier work
Human primary B cells [2] = test system: Human primary B cells; parameters: method as in PMID 36982945; details: summary table ref 11; cited from earlier work
T cells = experiment: Energy metabolism (Seahorse OCR/ECAR) in T cells; assay type: cell-based, human; details: 5 days, PatA, DMDA 0.25-0.5 nM, silvestrol 5 nM
Experimental: (§1) The determination of the energy metabolism was performed as described previously. Briefly, for the analysis of the extracellular acidification rate (ECAR) and the oxygen consumption rate (OCR) for human B cells, Tcells, M1 MdMs and M2 MdMs, the Seahorse XFe96 FluxPak (Agilent, Waldbronn, Germany) was used as recommended by the manufacturer. MdMs were polarized to M1 or M2 MdMs in the presence of PatA (0.5, 2.5, 5 nM), DMDA (0.5, 2.5, 5 nM) or vehicle (DMSO) for 48 h or 24 h, respectively. T cells were activated in the presence of PatA (0.25, 0.5 nM), DMDA (0.25, 0.5 nM), silvestrol or DMSO. B cells were activated in the presence of PatA (0.25, 0.5 nM), DMDA (0.25, 0.5 nM), silvestrol (5 nM) or rapamycin (10 ng/mL positive control). Cells were washed with Seahorse XF RPMI medium pH 7.4 (Agilent, Waldbronn, Germany) and OCR and ECAR were measured as octuplicates for a period of 160 min using the Seahorse XFe96 Analyzer (Agilent, Waldbronn, Germany) and analyzed by Wave Software 2.6.3.8 (Agilent, Waldbronn, Germany). The relative values were calculated by relating the OCR or ECAR values obtained after 50 min to the values of the vehicle control (not stimulated).

B cells = experiment: Energy metabolism (Seahorse OCR/ECAR) in B cells; assay type: cell-based, human; details: 5 days, PatA, DMDA 0.25-0.5 nM, silvestrol 5 nM, rapamycin 10 ng/mL
Experimental: as §1

TK6 cells = experiment: Micronuclei assay; assay type: cell-based, human; details: 4 h incubation then 44 h
Experimental: The In-Vitro Micronuclei Plus assay (Becton Dickinson, Heidelberg, Germany) was performed as described by the supplier. Briefly, 2 × 10^4 TK6 cells were incubated with increasing concentrations of PatA, DMDA and silvestrol for 4 h. The cells were washed with PBS and incubated in fresh medium (without test substance) for 44 h. The cells were centrifuged (300× g) for 5 min, the […] and placed on ice for 20 min. Then, 50 µL of Complete Nucleic Acid Dye A Solution was added. The plate was placed on ice and exposed to visible light for 30 min. The Nucleic Acid Dye A solution was removed and the cells were washed with 0.15 mL of cold 1x Buffer Solution. An amount of 100 µL Complete Lysis Solution 1 was added, followed by gently mixing of the plate for 5 s and incubation of 1 h in the dark at 37 °C. Then, 100 µL Complete Lysis Solution 2 was added and incubated for 30 min in the dark at room temperature. The cells were analyzed via flow cytometry with the MACSQuant 10 (Miltenyi GmbH, Bergisch Gladbach, Germany).

M1 MdMs [3] = test system: M1 MdMs; parameters: method as in PMID 36982945; details: M1 MdMs ref 11; cited from earlier work
Caco-2 cell barrier = experiment: Transport assay, Caco-2 cell barrier; assay type: in vitro ADME
Experimental: (§2) The transport assay was achieved as described previously. Briefly, 1 × 10^5 CaCo-2 or 5 × 10^4 Calu-3 cells in 300 µL medium were seeded on 24-well ThinCerts (pre-coated with FCS for 60 min) and in the lower compartment, 1 mL culture medium per well was added. The Caco-2 cell barrier was generated over 20 days and the Calu-3 barrier was generated over 14 days. DMDA (0 nM, 5 nM, 50 nM, 100 nM), PatA (0 nM, 5 nM, 50 nM, 100 nM), 200 µM famotidine, 200 µM lucifer yellow or 200 µM carbamazepine diluted in medium was added to the apical compartment and incubated for 4 h or 24 h. The medium from the basolateral and apical compartment was collected and stored at −20 °C and analyzed using LC-MS/MS. To obtain the transport rate, the drug amount in the basolateral compartment at 4 h or 24 h was related to the drug amount in the apical compartment (0 h).
(§3) The detailed method for the analysis of DMDA, PatA, carbamazepine and famotidine using LC-MS/MS is described in the Supplementary Materials.

Calu-3 cell barrier = experiment: Transport assay, Calu-3 cell barrier; assay type: in vitro ADME
Experimental: as §2, §3

Human primary B cells [4] = experiment: B cell activation with IL-21, sCD40L, CpG and anti-IgM; assay type: cell-based; details: activated B cells, 5 days
Experimental: B cells were activated as described by Khoenkhoen et al.. […].
Surface marker analysis was performed as described previously. Briefly, 1.5–2 × 10^5 cells of each sample were blocked with human FcR Blocking Reagent (15 min, 4 °C). […]. Afterwards, samples were stained with a mixture of different surface marker antibodies (15 min, 4 °C) and measured with MACSQuant® Analyzer 10 flow cytometer. For M1-/M2-MdMs anti-CD86, anti-CD14, anti-HLA-DR, anti-CD206, anti-CD80, anti-TREM2 and anti-CD163 were used. For T cells, anti-CD69, anti-CD54, anti-CD49a, anti-CD18, anti-CD134, anti-CD154, anti-CD3 and anti-CD25 were analyzed. For B cells, anti-CD27, anti-CD19 and anti-CD38 were applied. For T cell and B cell proliferation assay, freshly isolated T and B cells were stained with CTV and detected using flow cytometry. Naïve B cells were characterized as CD19^+CD27^lowCD38^med, memory B cells as CD19^+CD27^med CD38^low and plasma cells as CD27^+CD38^+ cells. M1 MdMs and M2 MdMs cell population was gated using FSC/SSC channel. T cells were gated as CD3^+CD25^+ positive cells. The geometric mean of the fluorescent intensity was calculated using FlowJo software v10 (Treestar, Ashland, […], USA). Fold induction of surface marker expression was calculated using the DMSO-treated cells as the control.
For determination of cytokine concentrations in the supernatant of humane immune cells, cytometric bead array (BD Biosciences, Heidelberg, Germany) for IL-10, IL-17, IL-8, IL-6, IFN-γ and CCL2 was used. For the detection of CCL18, CCL17, IgG, IgA and PGE2, an ELISA was performed. The cytometric bead arrays and the ELISAs were performed according to the protocol of the supplier.

[5] = 4 and 24 h, PatA, DMDA 5, 50, 100 nM, controls 200 µM

CONC(=O)[C@H]1[C@@H](O)[C@@]2(O)c3c(OC)cc(OC)cc3O[C@@]2(c2ccc(OC)cc2)[C@@H]1c1ccccc1 [CR31-B (-)]
Effect on the release of inflammatory markers, M1 MdM (M1 MdMs [1]): IL-6↓, IL-8↓, CCL2↓, CCL18↓
Effect on the release of inflammatory markers, M2 MdM (M2 MdMs): TNF-α↑, CCL2↓, CCL17↓, CCL18↓,
Effect on the release of inflammatory markers, T Cells (Human primary T cells): IL-10↓, IL-17↓, IFN-γ↓
Effect on the release of inflammatory markers, B Cells (Human primary B cells [2]): IgA↓, IgG↓

COC(=O)[C@H]1[C@@H](O)[C@@]2(O)c3c(OC)cc(O[C@@H]4O[C@@H]([C@H](O)CO)CO[C@H]4OC)cc3O[C@@]2(c2ccc(OC)cc2)[C@@H]1c1ccccc1 [Silvestrol, silvestrol]
Energy metabolism: glycolysis (ECAR) and oxidative phosphorylation (OCR) (T cells): did not alter the energy metabolism
Energy metabolism: glycolysis (ECAR) and oxidative phosphorylation (OCR) (B cells): increased glycolysis and oxidative phosphorylation
Genotoxic potential: micronuclei (clastogenic) and hypodiploid cells (aneugenic) (TK6 cells): showed no genotoxic effects
Effect on the release of inflammatory markers, M1 MdM (M1 MdMs [1]): IL-6↓, IL-8↓, CCL2↓, TNF-α↑
Effect on the release of inflammatory markers, M2 MdM (M2 MdMs): IL-8↓, CCL2↓,
Effect on the release of inflammatory markers, T Cells (Human primary T cells): IL-10↑, IFN-γ↑
Effect on the release of inflammatory markers, B Cells (Human primary B cells [2]): IgA↓, IgG↓
Energy metabolism: glycolysis and oxidative phosphorylation (M1 MdMs [3]): reduced glycolysis and oxidative phosphorylation

COc1cc2c(c(OC)n1)[C@]1(O)[C@H](O)[C@H](CN(C)C)[C@@H](c3ccccc3)[C@]1(c1ccc(C#N)cc1)O2 [Zotatifin, zotatifin]
Effect on the release of inflammatory markers, M1 MdM (M1 MdMs [1]): No effect
Effect on the release of inflammatory markers, M2 MdM (M2 MdMs): IL-10↓, CCL18↓
Effect on the release of inflammatory markers, T Cells (Human primary T cells): IL-10↓, IL-17↓, IFN-γ↓
Effect on the release of inflammatory markers, B Cells (Human primary B cells [2]): IgA↓, IgG↓

NC(=O)N1c2ccccc2C=Cc2ccccc21 [carbamazepine, reference compound]
Permeability / transport rate across Caco-2 cell barrier (in words) (Caco-2 cell barrier; [5]): high
Permeability / transport rate across Calu-3 cell barrier (in words) (Calu-3 cell barrier; [5]): high

NC(N)=Nc1nc(CSCCC(N)=NS(N)(=O)=O)cs1 [famotidine, reference compound]
Permeability / transport rate across Caco-2 cell barrier (in words) (Caco-2 cell barrier; [5]): low permeability
Permeability / transport rate across Calu-3 cell barrier (in words) (Calu-3 cell barrier; [5]): low permeability

COS(C)(=O)=O [methylmethansulfonat (MMS), methylmethansulfonat, reference compound]
Genotoxic potential: micronuclei (clastogenic) and hypodiploid cells (aneugenic) (TK6 cells): significant increase in micronuclei and hypodiploid cells

CO[C@H]1C[C@@H]2CC[C@@H](C)[C@@](O)(O2)C(=O)C(=O)N2CCCC[C@H]2C(=O)O[C@H]([C@H](C)C[C@@H]2CC[C@@H](O)[C@H](OC)C2)CC(=O)[C@H](C)/C=C(\C)[C@@H](O)[C@@H](OC)C(=O)[C@H](C)C[C@H](C)/C=C/C=C/C=C/1C [rapamycin, reference compound]
B cell activation (formation of plasma cells, proliferation, release of IgGs) (Human primary B cells [4]): prevented B cell activation
Cell viability (zombie staining) (Human primary B cells [4]): did not reduce cell viability

lucifer yellow [reference compound]
Permeability / transport rate across Caco-2 cell barrier (in words) (Caco-2 cell barrier; Caco-2): low permeability
Permeability / transport rate across Calu-3 cell barrier (in words) (Calu-3 cell barrier): low permeability

Reference: PMC11546719, “Immune Modulatory Profile of the Pateamines PatA and Des-Methyl Des-Amino PatA” (International Journal of Molecular Sciences, 2024)
